Experimental data published in ChEMBL document CHEMBL3885881, “DrugMatrix”.

Species: Rattus norvegicus
Test: DrugMatrix - Regimen: Daily Repeat
Assay type: toxicity, organism-based, Sprague-Dawley
Design: regimen Daily Repeat, gender Male, age 6-8 weeks
Settings: in vivo, po, route oral GAVAGE; for POTASSIUM / SODIUM / TOTAL BILIRUBIN / TOTAL PROTEIN / URIC ACID / ALANINE AMINOTRANSFERASE / ALBUMIN / ALKALINE PHOSPHATASE / ASPARTATE AMINOTRANSFERASE / BLOOD UREA NITROGEN / CARBON DIOXIDE / CHLORIDE / CHOLESTEROL / CREATINE PHOSPHOKINASE / CREATININE / GLUCOSE / LACTATE DEHYDROGENASE / LIPASE / PHOSPHORUS: tissue Plasma; for ABSOLUTE EOSINOPHIL / ABSOLUTE LYMPHOCYTE / ABSOLUTE MONOCYTE / ABSOLUTE SEGMENTED NEUTROPHIL / EOSINOPHIL / ERYTHROCYTE COUNT / HEMATOCRIT / HEMOGLOBIN / LEUKOCYTE COUNT / LYMPHOCYTE / MEAN CORPUSCULAR HEMOGLOBIN / MEAN CORPUSCULAR HEMOGLOBIN CONCENTRATION / MEAN CORPUSCULAR VOLUME / MONOCYTE / NEUTROPHIL / PLATELET COUNT / ABSOLUTE BASOPHIL / BASOPHIL / NUCLEATED RED BLOOD CELLS: tissue Blood
[1] = 60 mg/kg, 120 h, dose level Low, time 5 day, vehicle 100 % WATER
[2] = 600 mg/kg, 72 h, dose level High, time 3 day, […]
[3] = 600 mg/kg, 72 h, dose level High, time 3 day, vehicle 100 % WATER
[4] = 600 mg/kg, 120 h, dose level High, time 5 day, […]
[5] = 600 mg/kg, 120 h, dose level High, time 5 day, vehicle 100 % WATER

ClC(Cl)Cl [CHLOROFORM]
POTASSIUM [1]: 6.14 MEQ/L
SODIUM [1]: 145.6 MEQ/L
TOTAL BILIRUBIN [1]: 0.1 mg/dL
TOTAL PROTEIN [1]: 6.3 G/DL
URIC ACID [1]: 1.5 mg/dL
ABSOLUTE EOSINOPHIL [2]: 29.6 CELLS/uL
ABSOLUTE LYMPHOCYTE [2]: 12329.2 CELLS/uL
ABSOLUTE MONOCYTE [2]: 476.6 CELLS/uL
ABSOLUTE SEGMENTED NEUTROPHIL [2]: 1764.6 CELLS/uL
EOSINOPHIL [2]: 0.2%
ERYTHROCYTE COUNT [2]: 7.17 x10E6/uL
HEMATOCRIT [2]: 43%
HEMOGLOBIN [2]: 15.88 G/DL
LEUKOCYTE COUNT [2]: 14.6 x10E3/uL
LYMPHOCYTE [2]: 84.4%
MEAN CORPUSCULAR HEMOGLOBIN [2]: 22.2 pg
MEAN CORPUSCULAR HEMOGLOBIN CONCENTRATION [2]: 37 G/DL
MEAN CORPUSCULAR VOLUME [2]: 60.02 fL
MONOCYTE [2]: 3.2%
NEUTROPHIL [2]: 12.2%
PLATELET COUNT [2]: 1301.6 x10E3/uL
ABSOLUTE BASOPHIL [3]: 0 CELLS/uL
ABSOLUTE EOSINOPHIL [3]: 0 CELLS/uL
ABSOLUTE LYMPHOCYTE [3]: 7700 CELLS/uL
ABSOLUTE MONOCYTE [3]: 77.67 CELLS/uL
ABSOLUTE SEGMENTED NEUTROPHIL [3]: 589 CELLS/uL
BASOPHIL [3]: 0%
EOSINOPHIL [3]: 0%
ERYTHROCYTE COUNT [3]: 6.05 x10E6/uL
HEMATOCRIT [3]: 38.4%
HEMOGLOBIN [3]: 14.97 G/DL
LEUKOCYTE COUNT [3]: 8.37 x10E3/uL
LYMPHOCYTE [3]: 88%
MEAN CORPUSCULAR HEMOGLOBIN [3]: 24.73 pg
MEAN CORPUSCULAR HEMOGLOBIN CONCENTRATION [3]: 38.97 G/DL
MEAN CORPUSCULAR VOLUME [3]: 63.43 fL
MONOCYTE [3]: 1.33%
NEUTROPHIL [3]: 10.67%
NUCLEATED RED BLOOD CELLS [3]: 0 /100WBC
PLATELET COUNT [3]: 1080.33 x10E3/uL
ALANINE AMINOTRANSFERASE [2]: 196 u/L
ALBUMIN [2]: 4.36 G/DL
ALKALINE PHOSPHATASE [2]: 902 u/L
ASPARTATE AMINOTRANSFERASE [2]: 462.4 u/L
BLOOD UREA NITROGEN [2]: 20.8 mg/dL
CARBON DIOXIDE [2]: 16.6 mmol/L
CHLORIDE [2]: 107.4 MEQ/L
CHOLESTEROL [2]: 77.6 mg/dL
CREATINE PHOSPHOKINASE [2]: 516 u/L
CREATININE [2]: 0.44 mg/dL
GLUCOSE [2]: 134.8 mg/dL
LACTATE DEHYDROGENASE [2]: 597.4 u/L
LIPASE [2]: 10.6 u/L
PHOSPHORUS [2]: 13.48 mg/dL
POTASSIUM [2]: 5.66 MEQ/L
SODIUM [2]: 144.48 MEQ/L
TOTAL BILIRUBIN [2]: 0.72 mg/dL
TOTAL PROTEIN [2]: 6.04 G/DL
URIC ACID [2]: 2.72 mg/dL
ALANINE AMINOTRANSFERASE [3]: 73.33 u/L
ALBUMIN [3]: 4.4 G/DL
ALKALINE PHOSPHATASE [3]: 416 u/L
ASPARTATE AMINOTRANSFERASE [3]: 103.67 u/L
BLOOD UREA NITROGEN [3]: 14.67 mg/dL
CARBON DIOXIDE [3]: 34.33 mmol/L
CHLORIDE [3]: 98.67 MEQ/L
CHOLESTEROL [3]: 81.67 mg/dL
CREATINE PHOSPHOKINASE [3]: 203.67 u/L
CREATININE [3]: 0.22 mg/dL
GLUCOSE [3]: 153.67 mg/dL
LACTATE DEHYDROGENASE [3]: 179 u/L
LIPASE [3]: 10.67 u/L
PHOSPHORUS [3]: 10 mg/dL
POTASSIUM [3]: 5.43 MEQ/L
SODIUM [3]: 144.7 MEQ/L
TOTAL BILIRUBIN [3]: 0.13 mg/dL
TOTAL PROTEIN [3]: 6.6 G/DL
URIC ACID [3]: 0.7 mg/dL
ABSOLUTE LYMPHOCYTE [4]: 11359.33 CELLS/uL
ABSOLUTE MONOCYTE [4]: 227.33 CELLS/uL
ABSOLUTE SEGMENTED NEUTROPHIL [4]: 6880 CELLS/uL
ERYTHROCYTE COUNT [4]: 7.17 x10E6/uL
HEMATOCRIT [4]: 42.1%
HEMOGLOBIN [4]: 15.6 G/DL
LEUKOCYTE COUNT [4]: 18.47 x10E3/uL
LYMPHOCYTE [4]: 73%
MEAN CORPUSCULAR HEMOGLOBIN [4]: 21.73 pg
MEAN CORPUSCULAR HEMOGLOBIN CONCENTRATION [4]: 37.07 G/DL
MEAN CORPUSCULAR VOLUME [4]: 58.7 fL
MONOCYTE [4]: 2%
NEUTROPHIL [4]: 25%
PLATELET COUNT [4]: 1040.67 x10E3/uL
ABSOLUTE BASOPHIL [5]: 0 CELLS/uL
ABSOLUTE EOSINOPHIL [5]: 0 CELLS/uL
ABSOLUTE LYMPHOCYTE [5]: 9175.5 CELLS/uL
ABSOLUTE MONOCYTE [5]: 105.5 CELLS/uL
ABSOLUTE SEGMENTED NEUTROPHIL [5]: 1269 CELLS/uL
BASOPHIL [5]: 0%
EOSINOPHIL [5]: 0%
ERYTHROCYTE COUNT [5]: 6.48 x10E6/uL
HEMATOCRIT [5]: 39.2%
HEMOGLOBIN [5]: 15.15 G/DL
LEUKOCYTE COUNT [5]: 10.55 x10E3/uL
LYMPHOCYTE [5]: 88%
MEAN CORPUSCULAR HEMOGLOBIN [5]: 23.4 pg
MEAN CORPUSCULAR HEMOGLOBIN CONCENTRATION [5]: 38.7 G/DL
MEAN CORPUSCULAR VOLUME [5]: 60.5 fL
MONOCYTE [5]: 1%
NEUTROPHIL [5]: 11%
NUCLEATED RED BLOOD CELLS [5]: 0 /100WBC
PLATELET COUNT [5]: 959 x10E3/uL
ALANINE AMINOTRANSFERASE [4]: 212 u/L
ALBUMIN [4]: 4.1 G/DL
ALKALINE PHOSPHATASE [4]: 626 u/L
ASPARTATE AMINOTRANSFERASE [4]: 299.67 u/L
BLOOD UREA NITROGEN [4]: 49.67 mg/dL
CARBON DIOXIDE [4]: 19.67 mmol/L
CHLORIDE [4]: 110.67 MEQ/L
CHOLESTEROL [4]: 110.33 mg/dL
CREATINE PHOSPHOKINASE [4]: 744 u/L
CREATININE [4]: 0.83 mg/dL
GLUCOSE [4]: 119.33 mg/dL
LACTATE DEHYDROGENASE [4]: 376 u/L
PHOSPHORUS [4]: 13.27 mg/dL
POTASSIUM [4]: 9.12 MEQ/L
SODIUM [4]: 144.83 MEQ/L
TOTAL BILIRUBIN [4]: 0.63 mg/dL
TOTAL PROTEIN [4]: 5.77 G/DL
URIC ACID [4]: 1.3 mg/dL
ALANINE AMINOTRANSFERASE [5]: 46.5 u/L
ALBUMIN [5]: 4.05 G/DL
ALKALINE PHOSPHATASE [5]: 305.5 u/L
ASPARTATE AMINOTRANSFERASE [5]: 71 u/L
BLOOD UREA NITROGEN [5]: 15 mg/dL
CARBON DIOXIDE [5]: 29 mmol/L
CHLORIDE [5]: 102.5 MEQ/L
CHOLESTEROL [5]: 69 mg/dL
CREATINE PHOSPHOKINASE [5]: 475.5 u/L
CREATININE [5]: 0.21 mg/dL
GLUCOSE [5]: 150.5 mg/dL
LACTATE DEHYDROGENASE [5]: 93 u/L
LIPASE [5]: 11 u/L
PHOSPHORUS [5]: 11.45 mg/dL
POTASSIUM [5]: 5.24 MEQ/L
SODIUM [5]: 146.9 MEQ/L
TOTAL BILIRUBIN [5]: 0.1 mg/dL
TOTAL PROTEIN [5]: 6.05 G/DL
URIC ACID [5]: 0.95 mg/dL
